Patent US8450314B2, “Pyrimidopyridazine derivatives useful as P38 MAPK inhibitors” (Chiesi Farmaceutici S.p.A., priority 2009, dated 2013)

Biological target: T1, p38α (Homo sapiens, UniProt Q16539)
T1 construct: purchased Calbiochem 559324; host or cells: E. coli
Assay: p38 Kinase Assay (ATF-2 phosphorylation ELISA)
Assay type: biochemical
Settings: human recombinant p38 activated with MKK6; 2 h preincubation; ATP 250 μM; 1% DMSO; read-out: p38α inhibition
Protocol: Human recombinant p38 enzyme expressed in E. coli and activated by incubation with MKK6 enzyme (Calbiochem #559324) is used as source of enzyme activity.
The assay is carried in high binding, clear, flat bottom 96 well assay plates which have been coated with recombinant ATF-2 (Biosource #PHF0043). Test compounds are incubated with p38 kinase for 2 h prior to initiating the kinase assay by the addition of ATP to obtain an assay concentration of 250 μM. Phosphorylation of ATF-2 is detected and quantified using an ELISA. This consists of sequential incubation in the presence of anti-phospho-ATF2, biotinylated anti-IgG and streptavidin-HRP. Incubation with an HRP chromogenic substrate (TMB) results in absorbance that is proportional to the amount of phosphorylated substrate produced. Absorbance is detected using a multiwell plate reader.
Compounds are diluted in DMSO prior to addition to assay buffer, the final DMSO concentration in the assay being 1%.
The IC50 is defined as the concentration at which a given compound achieves 50% inhibition of control.

T1 sequence (Q16539 whole entry): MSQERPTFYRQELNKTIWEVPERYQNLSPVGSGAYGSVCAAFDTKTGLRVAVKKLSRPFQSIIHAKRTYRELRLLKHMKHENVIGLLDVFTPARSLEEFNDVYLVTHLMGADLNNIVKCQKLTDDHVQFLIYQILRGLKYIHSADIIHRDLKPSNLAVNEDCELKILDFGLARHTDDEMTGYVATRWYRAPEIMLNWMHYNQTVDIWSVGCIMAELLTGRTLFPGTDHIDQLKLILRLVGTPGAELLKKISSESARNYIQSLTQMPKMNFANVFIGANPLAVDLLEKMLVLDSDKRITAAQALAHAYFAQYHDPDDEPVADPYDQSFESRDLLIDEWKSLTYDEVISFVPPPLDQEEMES

Row | Structure (SMILES) | IC50 [nM]
1 | O=C(NCc1ccccc1Sc1ccc2c(-c3c(Cl)cccc3Cl)c(=O)ncn2n1)c1cc(F)cc(N2CCOCC2)c1 [Example 2, N-(2-{[5-(2,6-Dichlorophenyl)-6-oxo-6H-pyrimido[1,6-b]pyridazin-2-yl]sulfanyl}benzyl)-3-fluoro-5-(morpholin-4-yl)benzamide] | < 100
2 | NC(=O)C(c1ccc(Sc2ccccc2CNC(=O)c2cc(F)cc(N3CCOCC3)c2)nn1)c1c(Cl)cccc1Cl (centres unmarked) [Example 1, N-[2-({6-[2-Amino-1-(2,6-dichlorophenyl)-2-oxoethyl]pyridazin-3-yl}sulfanyl)benzyl]-3-fluoro-5-(morpholin-4-yl)benzamide] | < 10
